Data published in patent US11026889B2, “Polymeric drug delivery systems for treatment of disease” (Board of Regents, The University of Texas System, priority 2015, dated 2021).

Tests used:
[1] = system: spontaneous PDAC of KPC-luc mice; assay: Survival study in KPC-luc mice; format: in vivo; settings: KPC-luc mice enrolled at 95 to 100 days of age; CTL 139 days
Procedure: FIG. 22: Antitumor efficacy of M-CPA/PTX in a transgenic mice model with spontaneous PDAC in the pancreas of KPC-Luc mice. Mice with positive bioluminescence signals were enrolled at 95 to 100 days of age. M-CPA/PTX was given at 5 mg/kg/drug per injection. The treatment schedule was: 3 intravenous injections per week for the first 2 weeks, followed by 2 intraperitoneal injections per week until death or 90 days from the initiation of treatment. Untreated mice were kept as control (CTL). Gemcitabine and abraxane were used as the standard therapies. Gemcitabine was intraperitoneally injected at 100 mg/kg every other day until death. Abraxane was given at 5 mg/kg/injection following the same schedule as M-CPA/PTX.
The genetically engineered mouse model of PDAC (the KPC-luc mouse model) was also used to test for the antitumor efficacy of drug-loaded micelles on tumors in a survival study. […] The mice were assigned into four different groups: (1) mice with untreated […] (control group), (2) mice intravenously injected gemcitabine at 100 mg/kg every other day until death, (3) mice given Abraxane at 5 mg/kg/injection, and (4) M-CPA/PTX given at 5 mg/kg/drug per injection. […]

Miapaca-2 cells [2] = assay: Cell proliferation MTS assay, Miapaca-2; format: cell-based; settings: Homo sapiens, MIA PaCa-2, 72 h
Procedure: (§1) Assays of cell proliferation and clonogenicity. Cells were seeded at 2000 cells/well in 96-well plates and treated at 37° C. for 72 h before MTS [3-(4,5-dimethylthiazol-2-yl)-5-(3-carboxymethoxyphenyl)-2-(4-sulfophenyl)-2H- tetrazolium] assay. The proportion of viable cells was normalized to that of untreated cells and expressed as mean±standard error of the mean (n=6). […] Cells were seeded at 1000 cells per 10-cm plate in growth medium overnight and treated at 37° C. for 10 days. At the end of this 10-day period, colonies were fixed with formalin and stained with crystal violet. Colonies with more than 20 cells were counted.

Panc-1 cells = assay: Cell proliferation MTS assay, Panc-1; format: cell-based; settings: Homo sapiens, 72 h
Procedure: as §1

L3.6pl cells = assay: Cell proliferation MTS assay, L3.6pl; format: cell-based; settings: Homo sapiens, 72 h
Procedure: as §1

HPSCs = assay: Cell proliferation MTS assay, HPSCs; format: cell-based; settings: 72 h, read-out: IC50, HPSC proliferation
Procedure: as §1

Miapaca-2 cells [3] = assay: Clonogenicity assay, Miapaca-2; format: cell-based, human; settings: 3 μM, 10 days, vs no treatment
Procedure: as §1

Structure (SMILES) | median survival [1] | IC50 (Miapaca-2 cells [2]) | IC50 (Panc-1 cells) | IC50 (L3.6pl cells) | IC50 (HPSCs) | reduction of the number of colonies (Miapaca-2 cells [3])
Nc1ccn([C@@H]2O[C@H](CO)[C@@H](O)C2(F)F)c(=O)n1 [gemcitabine] | 167 days |  |  |  |  | 
CC(=O)O[C@H]1C(=O)[C@@]2(C)[C@H]([C@H](OC(=O)c3ccccc3)[C@]3(O)C[C@H](OC(=O)[C@H](O)[C@@H](NC(=O)c4ccccc4)c4ccccc4)C(C)=C1C3(C)C)[C@]1(OC(C)=O)CO[C@@H]1C[C@@H]2O [PTX, paclitaxel] |  | 0.0012 ± 0.0001 µM | 0.0024 ± 0.0004 µM | 0.0014 ± 0.0001 µM |  | 
CC1=C2C[C@H]3[C@@H](CC=C4C[C@@H](O)CC[C@@]43C)[C@@H]2CC[C@]12O[C@@H]1C[C@H](C)CN[C@H]1[C@H]2C [CPA, cyclopamine] |  | 10.2 ± 0.1 µM | ~163 µM | 16 ± 1.5 µM | 13.3 ± 1.2 µM | 18.2±1.3%
